This note sets out measurements from patent publication EP2719696A1, “NOVEL KINASE INHIBITORS” (Asinex Limited, priority 2011, dated 2012).

The target in one assay is VEGFR-2 (Homo sapiens, UniProt P35968). Description: Kinase inhibition assay (ELISA). In kind it is biochemical. As to conditions: 1.5 µM ATP. How it is done:
(§1) To determine the interaction of our compounds with tyrosine kinases: PDGFR-α, cKIT, PDGFR-β, VEGFR-2 we used enzyme-linked immunosorbent assay (ELISA).
(§2) Determination plates preparation: The plates are processed by neutravidine for 2 h at 30°C. After washing thrice with TBS/0.1% Tween-20 and blocking with 1% BSA/TBS for 1 h at room temperature (RT) 96-well microtiter plates were washed thrice with TBS/0.1% Tween-20 again.
(§3) Reaction: After addition test compounds (in DMSO, DMSO final concentration - 5%) to reaction buffer (20 mM HEPES, pH 7.5, 15 mM MgCl2, 3 mM MnCl2, 2 mM DTT, 0.2 mM Na3VO4, 0.005% Triton X-100; PDGFR-α,: 0.05 µg/ml, 0.5 µg/ml Poly(G,T)-biotin; PDGFR-β: 0.05 µg/ml, 1 µg/ml Poly(G,T)-biotin; c-KIT: 0.03 µg/ml, 0.15 µg/ml Poly(G,T)-biotin; VEGFR-2: 0.07 µg/ml, 0.05 µg/ml Poly(G,T)-biotin) and preincubation of reaction for 10 min at RT and intensive agitation, ATP solution (PDGFR-α, - 1 µM, PDGFR-β - 0.5 µM, c-KIT - 60 µM, VEGFR-2: - 1.5 µM ATP in reaction buffer per well) was added to initiate reaction. Following incubation of mixture for 1 h at 30°C and intensive agitation the reaction was stopped by stop solution (20 mM HEPES, pH 7.5, 50 mM EDTA).
(§4) Kinase activity determination: The reaction mixture was transferred to determination plate. After mix incubation for 1 h at RT and intensive agitation the plates were washed thrice with TBS/0.1% Tween-20. Following mouse monoclonal 0.05 µg/ml Anti-p-Tyr (PY20) HRP antibodies (Santa Cruz Biotechnology) in PBS/BSA were added for 1 h at RT and intensive agitation. After washing, antibody binding was detected by tetramethylbenzidine (TMB) color development (Sigma). Measurement of A450 nm was carried out after addition of H2SO4

The next assay addresses cKIT (Homo sapiens, UniProt P10721). Description: Kinase inhibition assay (ELISA). Type of assay: biochemical. As to conditions: 60 µM ATP. How it is done:
as §1, §2, §3, §4

A further assay addresses PDGFR-α (Homo sapiens, UniProt P16234). Description: Kinase inhibition assay (ELISA). In kind it is biochemical. Conditions: 1 µM ATP. How it is done:
as §1, §2, §3, §4
For orientation: An ELISA detects its analyte on a solid surface through an enzyme-linked reagent.

For a further assay, the system named is U251. Description: MTT proliferation / cytotoxicity assay. Conditions: Homo sapiens, U-251, 72 h, glioblastoma cell line. In kind it is cell-based, human. On the procedure:
(§5) Cell culture. The human cancer cell lines A172, A375, A2780 and U251 were purchased from the American Type Culture Collection. All cells were routinely maintained in DMEM containing 10% fetal bovine serum (Omega Scientific), at 37°C in 5% C02.
(§6) Proliferation assay Inhibition of cell A172, A375, A2780 and U251 cell proliferation was assessed by a MTT assay (MTT = Thiazolyl Blue Tetrazolium Bromide) . Cells were inoculated into 96-well microtiter plates containing 0.5% fetal calf serum and incubated at 37°C, 5% CO2, 95% air, and 100% relative humidity for 24 h prior to addition of testing compounds. Following compounds addition, the plates were incubated for an additional 72 h before processing to measure the cell population. Each compound was tested at eight different concentrations in triplicate, as was a control sample. Growth inhibition of 50% (IC50) is calculated by analysis of the data in Prizm3.4 software.
(§7) Table 8 lists IC50 values for inhibition of growth of several cancer cell lines, including the glioblastoma cell lines A172 and U251, measured in a MTT cytotoxicity assay. Table 8. Data of cytotoxicity assay (MTT) for several cancer cell lines, IC50 [µM]

Another assay has as its system A375. The assay is described as follows: MTT proliferation / cytotoxicity assay. Conditions: Homo sapiens, A-375, 72 h. In kind it is cell-based, human. How it is done: as §5, §6, §7
Another assay relates to A172. The assay is described as follows: MTT proliferation / cytotoxicity assay. In kind it is cell-based, human. As to conditions: Homo sapiens, A 172, 72 h, glioblastoma cell line. On the procedure:
as §5, §6, §7

For the next assay, the system named is A2780. The assay is described as follows: MTT proliferation / cytotoxicity assay. Type of assay: cell-based, human. Conditions: Homo sapiens, A2780, 72 h. On the procedure:
as §5, §6, §7

VEGFR-2, sequence (P35968 20-1356, species assumed): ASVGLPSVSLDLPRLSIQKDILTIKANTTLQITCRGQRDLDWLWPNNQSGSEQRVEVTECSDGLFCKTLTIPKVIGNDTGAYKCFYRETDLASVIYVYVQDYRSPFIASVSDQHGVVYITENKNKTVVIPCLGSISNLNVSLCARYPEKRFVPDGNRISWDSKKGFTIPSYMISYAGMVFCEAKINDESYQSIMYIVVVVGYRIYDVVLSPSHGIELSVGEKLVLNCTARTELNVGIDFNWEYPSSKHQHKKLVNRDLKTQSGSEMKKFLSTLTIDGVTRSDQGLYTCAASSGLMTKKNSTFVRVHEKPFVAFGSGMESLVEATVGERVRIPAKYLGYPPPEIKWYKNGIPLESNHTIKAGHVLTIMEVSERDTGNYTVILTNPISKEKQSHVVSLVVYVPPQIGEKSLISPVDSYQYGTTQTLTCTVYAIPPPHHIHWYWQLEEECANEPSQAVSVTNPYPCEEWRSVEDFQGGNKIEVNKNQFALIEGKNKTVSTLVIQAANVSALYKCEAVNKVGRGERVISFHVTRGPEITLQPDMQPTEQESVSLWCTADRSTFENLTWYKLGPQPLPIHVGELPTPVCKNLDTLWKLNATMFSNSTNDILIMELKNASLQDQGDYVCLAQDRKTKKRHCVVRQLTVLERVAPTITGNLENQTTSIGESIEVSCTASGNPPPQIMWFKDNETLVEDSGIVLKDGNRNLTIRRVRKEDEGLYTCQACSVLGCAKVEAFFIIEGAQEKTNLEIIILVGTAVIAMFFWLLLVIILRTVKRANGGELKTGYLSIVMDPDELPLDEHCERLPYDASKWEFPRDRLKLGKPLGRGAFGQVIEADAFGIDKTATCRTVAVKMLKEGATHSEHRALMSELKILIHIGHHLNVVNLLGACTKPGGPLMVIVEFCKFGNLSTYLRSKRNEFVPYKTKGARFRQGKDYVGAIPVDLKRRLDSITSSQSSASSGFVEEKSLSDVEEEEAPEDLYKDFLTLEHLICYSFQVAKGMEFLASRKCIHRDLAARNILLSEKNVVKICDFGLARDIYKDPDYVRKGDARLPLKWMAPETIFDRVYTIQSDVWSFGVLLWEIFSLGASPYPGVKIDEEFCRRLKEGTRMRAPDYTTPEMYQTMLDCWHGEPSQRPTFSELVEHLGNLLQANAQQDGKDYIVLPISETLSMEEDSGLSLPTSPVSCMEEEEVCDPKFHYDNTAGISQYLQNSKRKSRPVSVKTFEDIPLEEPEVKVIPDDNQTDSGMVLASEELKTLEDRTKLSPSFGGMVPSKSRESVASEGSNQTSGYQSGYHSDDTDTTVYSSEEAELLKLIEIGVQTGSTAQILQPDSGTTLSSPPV
cKIT, sequence (P10721 26-976): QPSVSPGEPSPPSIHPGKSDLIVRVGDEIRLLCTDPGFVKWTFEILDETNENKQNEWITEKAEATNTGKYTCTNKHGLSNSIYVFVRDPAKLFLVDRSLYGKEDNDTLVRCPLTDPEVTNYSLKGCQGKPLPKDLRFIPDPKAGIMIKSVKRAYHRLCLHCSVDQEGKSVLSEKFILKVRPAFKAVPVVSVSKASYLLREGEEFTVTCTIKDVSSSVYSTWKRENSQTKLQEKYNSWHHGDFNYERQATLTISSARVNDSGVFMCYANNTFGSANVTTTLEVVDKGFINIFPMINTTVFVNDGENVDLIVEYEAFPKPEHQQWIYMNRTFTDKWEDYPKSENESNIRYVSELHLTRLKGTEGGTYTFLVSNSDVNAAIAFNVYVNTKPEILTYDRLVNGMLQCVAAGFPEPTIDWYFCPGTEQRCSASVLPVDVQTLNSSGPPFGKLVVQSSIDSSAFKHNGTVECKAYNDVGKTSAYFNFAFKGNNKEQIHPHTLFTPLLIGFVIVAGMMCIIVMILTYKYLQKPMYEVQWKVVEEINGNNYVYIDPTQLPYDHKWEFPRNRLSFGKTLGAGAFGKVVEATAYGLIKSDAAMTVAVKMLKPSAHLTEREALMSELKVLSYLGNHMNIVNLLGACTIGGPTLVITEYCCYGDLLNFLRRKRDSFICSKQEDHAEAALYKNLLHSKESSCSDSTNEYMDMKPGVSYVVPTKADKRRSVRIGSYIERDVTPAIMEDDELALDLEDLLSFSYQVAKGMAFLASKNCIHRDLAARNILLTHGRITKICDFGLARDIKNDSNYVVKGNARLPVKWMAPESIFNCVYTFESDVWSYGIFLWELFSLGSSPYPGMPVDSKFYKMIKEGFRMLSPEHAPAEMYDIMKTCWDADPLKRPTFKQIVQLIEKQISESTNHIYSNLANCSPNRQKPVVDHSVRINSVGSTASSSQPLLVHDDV
PDGFR-α, sequence (P16234 24-1089, species assumed): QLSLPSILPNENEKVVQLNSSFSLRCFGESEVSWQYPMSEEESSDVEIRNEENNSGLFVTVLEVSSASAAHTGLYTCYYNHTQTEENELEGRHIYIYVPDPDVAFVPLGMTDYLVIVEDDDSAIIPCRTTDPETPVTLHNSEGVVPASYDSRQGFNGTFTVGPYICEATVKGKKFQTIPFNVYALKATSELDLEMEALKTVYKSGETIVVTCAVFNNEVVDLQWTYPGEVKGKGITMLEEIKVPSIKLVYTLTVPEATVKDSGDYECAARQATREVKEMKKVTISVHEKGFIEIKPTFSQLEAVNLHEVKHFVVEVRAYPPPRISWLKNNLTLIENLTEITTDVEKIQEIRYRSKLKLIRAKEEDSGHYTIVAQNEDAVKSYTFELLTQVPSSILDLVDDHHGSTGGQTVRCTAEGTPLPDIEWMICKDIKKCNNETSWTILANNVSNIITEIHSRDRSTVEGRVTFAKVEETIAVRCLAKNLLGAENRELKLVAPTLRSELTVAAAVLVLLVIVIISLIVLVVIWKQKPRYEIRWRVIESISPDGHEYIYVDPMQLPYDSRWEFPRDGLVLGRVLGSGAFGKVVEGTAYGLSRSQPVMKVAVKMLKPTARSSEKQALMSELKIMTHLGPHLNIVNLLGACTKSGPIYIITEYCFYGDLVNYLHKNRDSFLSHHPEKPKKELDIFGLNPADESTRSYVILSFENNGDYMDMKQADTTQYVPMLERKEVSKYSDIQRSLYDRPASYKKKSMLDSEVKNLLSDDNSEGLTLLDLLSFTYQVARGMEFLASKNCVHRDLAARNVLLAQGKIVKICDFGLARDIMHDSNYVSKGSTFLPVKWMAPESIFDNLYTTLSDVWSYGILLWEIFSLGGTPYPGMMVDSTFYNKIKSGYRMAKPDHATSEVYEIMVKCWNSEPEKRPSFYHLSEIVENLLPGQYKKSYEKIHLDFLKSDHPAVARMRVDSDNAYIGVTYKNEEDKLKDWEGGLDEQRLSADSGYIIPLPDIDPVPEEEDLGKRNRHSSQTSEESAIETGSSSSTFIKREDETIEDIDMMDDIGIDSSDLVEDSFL

Take `CC(C)(C)OC(=O)N1CCC(c2cccc(Nc3ncc(C#CC4CC4)s3)n2)CC1` [Example 045, 6-(5-Cyclopro-pylethynyl-thiazol-2-ylamino)-3',4',5',6'-tetrahydro-2'H-[2,4']bipyridinyl-1'-carboxylic acid tert-butyl ester]: the half-maximal inhibitory concentration (IC50) against VEGFR-2 is > 10 nM; at cKIT, > 10000 nM; on PDGFR-α, > 10000 nM.

With `CN1CCC(Cc2ccnc(Nc3ncc(-c4ccc(F)cc4)s3)c2)CC1` [Example 004, [5-(4-Fluoro-phenyl)-thiazol-2-yl]-[4-(1-methyl-piperidin-4-ylmethyl)-pyridin-2-yl]-amine], the IC50 is > 10 µM with U251, > 1 µM in the assay with A375, > 1 µM with A172 and > 1 µM in the assay on A2780.

`OCCN1CCC(c2cncc(Nc3ncc(-c4ccccc4)s3)n2)CC1` [Example 030, 2-{4-[6-(5-Phenyl-thiazol-2-ylamino)-pyrazin-2-yl]-piperidin-1-yl}-ethanol]: the values for the IC50 against VEGFR-2, against cKIT and against PDGFR-α were > 100 nM, > 100 nM and > 10 nM, respectively.

For `CNC1CCC(Cc2ccnc(Nc3ncc(-c4ccc(F)cc4)s3)c2)CC1` (stereo not shown) [Example 016, [5-(4-Fluoro-phenyl)-thiazol-2-yl]-[4-(4-methylamino-cyclohexylmethyl)-pyridin-2-yl]-amine], the IC50 was > 1 µM with A172; > 1 µM in the assay with A2780; > 10 nM on VEGFR-2; < 10 nM at cKIT; < 10 nM against PDGFR-α.

For `Fc1ccc(-c2cnc(Nc3cc(CC4CCC5CNCC54)ccn3)s2)cc1` (stereo not shown) [Example 018, [5-(4-Fluoro-phenyl)-thiazol-2-yl]-[4-(octahydro-cyclopenta[c]pyrrol-4-ylmethyl)-pyridin-2-yl]-amine], the IC50 was > 1 µM in the assay on A172; > 1 µM in the assay on A2780; > 10 nM against VEGFR-2; < 10 nM against cKIT; < 10 nM on PDGFR-α.

Regarding `c1ccc(-c2cnc(Nc3cc(C4CCCN4)ccn3)s2)cc1` (stereo not shown) [Example 027, (5-Phenyl-thiazol-2-yl)-(4-pyrrolidin-2-yl-pyridin-2-yl)-amine], the IC50 at VEGFR-2 is > 10 nM; at cKIT, > 10 nM; at PDGFR-α, < 10 nM.

Turning to `Cc1nc(Nc2ncc(-c3ccccc3)s2)cc(C2CCN(C(=O)C(C)(C)N)CC2)n1` [Example 031, 2-Amino-2-methyl-1-{4-[2-methyl-6-(5-phenyl-thiazol-2-ylamino)-pyrimidin-4-yl]-piperidin-1-yl}-propan-1-one], the 50% inhibitory concentration (IC50) with U251 is > 10 µM; in the assay on A172 it was > 1 µM; with A2780, > 1 µM; against VEGFR-2, > 10 nM; against cKIT it was > 10 nM; against PDGFR-α it was < 10 nM.

As to `Cc1cc(Nc2ncc(-c3ccccc3)s2)nc(C2CCN(CCO)CC2)n1` [Example 029, 2-{4-[4-Methyl-6-(5-phenyl-thiazol-2-ylamino)-pyrimidin-2-yl]-piperidin-1-yl}-ethanol], the 50% inhibitory concentration (IC50) is > 1 µM in the assay on U251; ≤ 1 µM in the assay on A172; ≤ 1 µM in the assay with A2780; > 100 nM against VEGFR-2; < 10 nM on cKIT; > 10 nM at PDGFR-α.

As for `c1ccc(-c2cnc(Nc3cc(CC4CCCNCC4)ccn3)s2)cc1` (stereo not shown) [Example 026, (4-Azepan-4-ylmethyl-pyridin-2-yl)-(5-phenyl-thiazol-2-yl)-amine], the IC50 was > 10 µM in the assay with U251, > 1 µM in the assay with A375, > 1 µM in the assay with A172 and ≤ 1 µM in the assay with A2780.

As to `CC(C)(C)Cc1cnc(Nc2cccc(C3CCN(C(=O)C(C)(C)N)CC3)n2)s1` [Example 047, 2-Amino-1-{6-[5-(2,2-dimethylpropyl)-thiazol-2-ylamino]-3',4',5',6'-tetrahydro-2'H-[2,4']bipyridinyl-1'-yl}-2-methyl-propan-1-one], the IC50 is > 1 µM in the assay on A375; ≤ 1 µM in the assay on A2780; > 100 nM against VEGFR-2; > 1000 nM at cKIT; > 100 nM against PDGFR-α.

Turning to `OCCN1CCC(c2cccc(Nc3ncc(-c4ccnc(Cl)c4)s3)n2)CC1` [Example 046, 2-{6-[5-(2-Chloro-pyridin-4-yl)-thiazol-2-ylamino]-3',4',5',6'-tetrahydro-2'H-[2,4']bipyridinyl-1'-yl}-ethanol], the concentration for half-maximal inhibition (IC50) on VEGFR-2 is > 100 nM; against cKIT it was > 10 nM; on PDGFR-α, < 10 nM.

For the compound `OCCN1CCC(CO)(c2cccc(Nc3ncc(-c4ccccc4)s3)n2)CC1` [Example 042, 2-[4'-Hydroxymethyl-6-(5-phenyl-thiazol-2-ylamino)-3',4',5',6'-tetrahydro-2'H-[2,4']bipyridinyl-1'-yl]-ethanol], the IC50 was > 10000 nM at VEGFR-2, > 100 nM against cKIT and > 100 nM on PDGFR-α.

As to `OCCN1CCC(c2ccnc(Nc3ncc(/C=C/c4ccccc4)s3)c2)CC1` [Example 048, 2-{2'-[5-((E)-Styryl)-thiazol-2-ylamino]-3,4,5,6-tetrahydro-2H-[4,4']bipyridinyl-1-yl}-ethanol], the IC50 on VEGFR-2 was > 100 nM; against cKIT, > 1000 nM; against PDGFR-α, > 10 nM.

Take `Fc1ccc(-c2cnc(Nc3cccc(CC4CCC5CNCC54)n3)s2)cc1` (stereo not shown) [Example 020, [5-(4-Fluoro-phenyl)-thiazol-2-yl]-[6-(octahydro-cyclopenta[c]pyrrol-4-ylmethyl)-pyridin-2-yl]-amine]: the IC50 in the assay on A172 is ≤ 1 µM; in the assay with A2780 it was < 1 µM; against VEGFR-2 it was > 100 nM; against cKIT it was < 10 nM; against PDGFR-α it was < 10 nM.

Turning to `CN1CCOCC(Cc2ccnc(Nc3ncc(-c4ccc(F)cc4)s3)c2)C1` (stereo not shown) [Example 010, [5-(4-Fluoro-phenyl)-thiazol-2-yl]-[4-(4-methyl-[1,4]oxazepan-6-ylmethyl)-pyridin-2-yl]-amine], the IC50 with U251 is > 10 µM; in the assay on A375, > 1 µM; with A172, > 1 µM; in the assay with A2780, > 1 µM.

With `Fc1ccc(-c2cnc(Nc3cccc(CC4COC5(CCNCC5)C4)n3)s2)cc1` (stereo not shown) [Example 024, [5-(4-Fluoro-phenyl)-thiazol-2-yl]-[6-(1-oxa-8-aza-spiro[4.5]dec-3-ylmethyl)-pyridin-2-yl]-amine], the IC50 is ≤ 1 µM in the assay on A172; ≤ 1 µM with A2780; > 10 nM at VEGFR-2; > 10 nM against cKIT; < 10 nM against PDGFR-α.

On to `CCCc1cnc(Nc2cccc(C3CCN(C(=O)C(C)(C)N)CC3)n2)s1` [Example 041, 2-Amino-2-methyl-1-[6-(5-propyl-thiazol-2-ylamino)-3',4',5',6'-tetrahydro-2'H-[2,4']bipyridinyl-1'-yl]-propan-1-one], for which the IC50 in the assay with A375 is > 1 µM; in the assay with A2780, ≤ 1 µM; against cKIT, > 100 nM.

`CN(C)CC1(c2cccc(Nc3ncc(-c4ccccc4)s3)n2)CCN(CCO)CC1` [Example 043, 2-[4'-Dimethylaminomethyl-6-(5-phenyl-thiazol-2-ylamino)-3',4',5',6'-tetrahydro-2'H-[2,4']bipyridinyl-1'-yl]-ethanol]: the IC50 against VEGFR-2 is > 10000 nM; on cKIT, > 10000 nM; against PDGFR-α, > 1000 nM.

On to `c1ccc(-c2cnc(Nc3cc(CC4CCNC4)ccn3)s2)cc1` (stereo not shown) [Example 014, (5-Phenyl-thiazol-2-yl)-(4-pyrrolidin-3-ylmethyl-pyridin-2-yl)-amine], for which the IC50 is > 10 nM against VEGFR-2, > 10 nM on cKIT and < 10 nM on PDGFR-α.

As usually defined, the IC50 is the midpoint of a concentration-inhibition curve. Read a high IC50 as weaker potency.
